Data taken from patent US9801901B2, “Alginate oligomers for use in overcoming multidrug resistance in bacteria” (priority 2009, dated 2017).
Values after ≈ are worked out from the molar mass of the structure shown. Marks after values point to notes of the source that are not given here.

Tests used:
[1] = test system: MDR strains of Pseudomonas aeruginosa, Klebsiella pneumoniae, Burkholderia cepacia, Acinetobacter lwoffii, Acinetobacter baumannii and E. coli; assay: MIC assay of Example 2, summary over the strains of Tables 4, 5 and 6; assay type: cell-based; conditions: Example 2, Tables 4, 5 and 6
[2] = test system: V9 (Egypt) Acinetobacter baumannii; assay: MIC assay, CAMHB with alginate oligomer, no visible growth; assay type: cell-based
[3] = test system: PA01 Pseudomonas aeruginosa ATCC 15692; assay: MIC assay, two-fold antibiotic dilutions in CAMHB with alginate oligomer, no visible growth; assay type: cell-based
V11 5702 (Wales) E. coli = assay: MIC assay, CAMHB with alginate oligomer, no visible growth; assay type: cell-based
[4] = test system: Klebsiella pneumoniae KP05 506 from India (V3); assay: as above; assay type: cell-based; conditions: for MIC: Klebsiella pneumoniae, Table 1, V3 KP05 506
[5] = test system: Pseudomonas aeruginosa MDR R22 from China (V1); assay: as above; assay type: cell-based; conditions: Pseudomonas aeruginosa, Table 1, V1 MDR R22 PA
Description: (§1) The study described in Example 1 was repeated with the following strains of bacteria and antibiotics as detailed in Tables 4, 5 and 6.

MDR Pseudomonas strains = assay: MIC assay of Example 1, summary over the MDR Pseudomonas strains; assay type: cell-based, Pseudomonas aeruginosa
[6] = test system: Pseudomonas aeruginosa MDR 301 from Poland (V2); assay: MIC assay, CAMHB with alginate oligomer, no visible growth; assay type: cell-based; conditions: Pseudomonas aeruginosa, Table 1, V2 MDR 301 PA
[7] = test system: Pseudomonas aeruginosa ATCC 39324, mucoid type strain (R79); assay: as above; assay type: cell-based
V22 6056 Acinetobacter = assay: as above; assay type: cell-based, Acinetobacter lwoffii
[8] = test system: Pseudomonas aeruginosa CFA 24-1, clinical mucoid strain (R80); assay: as above; assay type: cell-based
[9] = test system: V12 5725 (Wales) Klebsiella pneumoniae; assay: as above; assay type: cell-based
[10] = test system: Acinetobacter baumannii MDR ACB from Libya (V4); assay: as above; assay type: cell-based
Description: as §1
The study described in Example 1 was repeated with the following strains of Acinetobacter baumannii, antibiotics and M-block alginate oligomer in place of OligoG CF-5/20 as detailed in Table 7. The M-block oligomer is 100% M with a DPn of 15 to 18,

[11] = test system: V23 1322 Burkholderia cepacia; assay: as above; assay type: cell-based; conditions: Table 6, V23
[12] = test system: V10 (Egypt) Acinetobacter lwoffii; assay: as above; assay type: cell-based

CC1(C)C[C@@H]1C(=O)N/C(=C\CCCCSC[C@H](N)C(=O)O)C(=O)O [Primaxin, Imipenem/cilastatin]
change of MIC with increasing amounts of OligoG CF-5/20 [1]: decreasing MICs
MIC ([2]; Acinetobacter baumannii): 1 mg/L (≈ 2.79 µM)
MIC ([2]; Table 5, V9 MDR Acin. baum, OligoCF-5/20 +2% G): 2 mg/L (≈ 5.58 µM)
MIC ([2]; Table 5, V9 MDR Acin. baum, OligoCF-5/20 +6% G): <0.5^† μg/ml
MIC ([2]; Table 5, V9 MDR Acin. baum, OligoCF-5/20 +10% G): <0.5^† μg/ml
MIC ([3]; Pseudomonas aeruginosa, ATCC15692): < 1 mg/L
MIC ([3]; Table 1, PA01, OligoCF-5/20 +2% G): <1 mg/L
MIC ([3]; Table 1, PA01, OligoCF-5/20 +6% G): <1 mg/L
MIC ([3]; Table 1, PA01, OligoCF-5/20 +10% G): <1 mg/L
MIC (V11 5702 (Wales) E. coli; Escherichia coli): < 0.5 mg/L
MIC (V11 5702 (Wales) E. coli; Table 5, V11 MDR E.coli, OligoCF-5/20 +2% G): <0.5 mg/L
MIC (V11 5702 (Wales) E. coli; Table 5, V11 MDR E.coli, OligoCF-5/20 +6% G): <0.5 mg/L
MIC (V11 5702 (Wales) E. coli; Table 5, V11 MDR E.coli, OligoCF-5/20 +10% G): <0.5 mg/L
effectiveness in conjunction with alginate oligomers ([4]; Example 1, KP05 506): inconclusive
MIC ([4]; OligoCF-5/20 0G): 32 mg/L (≈ 89.3 µM)
MIC ([4]; OligoCF-5/20 +2% G): 64 mg/L (≈ 179 µM)
MIC ([4]; OligoCF-5/20 +6% G): 64 mg/L (≈ 179 µM)
MIC ([4]; OligoCF-5/20 +10% G): 64 mg/L (≈ 179 µM)
MIC ([5]; OligoCF-5/20 0G): 128 mg/L (≈ 357 µM)
MIC ([5]; OligoCF-5/20 +2% G): 128 mg/L (≈ 357 µM)
MIC ([5]; OligoCF-5/20 +6% G): 64 mg/L (≈ 179 µM)
MIC ([5]; OligoCF-5/20 +10% G): 32 mg/L (≈ 89.3 µM)
effectiveness when used in combination with the alginate oligomers (MDR Pseudomonas strains): more effective
MIC ([6]; OligoCF-5/20 0G): 512 mg/L (≈ 1430 µM)
MIC ([6]; OligoCF-5/20 +2% G): 256 mg/L (≈ 714 µM)
MIC ([6]; OligoCF-5/20 +6% G): 256 mg/L (≈ 714 µM)
MIC ([6]; OligoCF-5/20 +10% G): 128 mg/L (≈ 357 µM)
MIC ([7]; Pseudomonas aeruginosa, ATCC39324): < 1 mg/L
MIC ([7]; Table 1, R79, OligoCF-5/20 +2% G): <1 mg/L
MIC ([7]; Table 1, R79, OligoCF-5/20 +6% G): <1 mg/L
MIC ([7]; Table 1, R79, OligoCF-5/20 +10% G): <1 mg/L
MIC (V22 6056 Acinetobacter; Acinetobacter): 8 mg/L (≈ 22.3 µM)
MIC (V22 6056 Acinetobacter; Table 5, V22 MDR Acin. lwoff, OligoCF-5/20 +2% G): 8 mg/L (≈ 22.3 µM)
MIC (V22 6056 Acinetobacter; Table 5, V22 MDR Acin. lwoff, OligoCF-5/20 +6% G): 8 mg/L (≈ 22.3 µM)
MIC (V22 6056 Acinetobacter; Table 5, V22 MDR Acin. lwoff, OligoCF-5/20 +10% G): 4^† μg/ml
MIC ([8]; Pseudomonas aeruginosa): < 1 mg/L
MIC ([8]; Table 1, R80, OligoCF-5/20 +2% G): <1 mg/L
MIC ([8]; Table 1, R80, OligoCF-5/20 +6% G): <1 mg/L
MIC ([8]; Table 1, R80, OligoCF-5/20 +10% G): <1 mg/L
MIC ([9]; Klebsiella pneumoniae): < 0.5 mg/L
MIC ([9]; Table 5, V12 MDR Kleb pneu, OligoCF-5/20 +2% G): <0.5 mg/L
MIC ([9]; Table 5, V12 MDR Kleb pneu, OligoCF-5/20 +6% G): <0.5 mg/L
MIC ([9]; Table 5, V12 MDR Kleb pneu, OligoCF-5/20 +10% G): <0.5 mg/L
MIC ([10]; Acinetobacter baumannii): < 1 mg/L
MIC ([10]; Table 1, V4 ACB (Libya), OligoCF-5/20 +2% G): <1 mg/L
MIC ([10]; Table 1, V4 ACB (Libya), OligoCF-5/20 +6% G): <1 mg/L
MIC ([10]; Table 1, V4 ACB (Libya), OligoCF-5/20 +10% G): <1 mg/L
MIC ([11]; Burkholderia cepacia, Experiment 1 (18-03-10), OligoCF-5/20 0G): 128 mg/L (≈ 357 µM)
MIC ([11]; Burkholderia cepacia, Experiment 2 (18-03-10), OligoCF-5/20 0G): 256 mg/L (≈ 714 µM)
MIC ([11]; Burkholderia cepacia, Experiment 3 (19-03-10), OligoCF-5/20 0G): 256 mg/L (≈ 714 µM)
MIC ([11]; Experiment 1 (18-03-10), OligoCF-5/20 +2% G): 128 mg/L (≈ 357 µM)
MIC ([11]; Experiment 1 (18-03-10), OligoCF-5/20 +6% G): 64^† μg/ml
MIC ([11]; Experiment 1 (18-03-10), OligoCF-5/20 +10% G): 32^† μg/ml
MIC ([11]; Experiment 2 (18-03-10), OligoCF-5/20 +2% G): 128^† μg/ml
MIC ([11]; Experiment 2 (18-03-10), OligoCF-5/20 +6% G): 128^† μg/ml
MIC ([11]; Experiment 2 (18-03-10), OligoCF-5/20 +10% G): 64^† μg/ml
MIC ([11]; Experiment 3 (19-03-10), OligoCF-5/20 +2% G): 256 mg/L (≈ 714 µM)
MIC ([11]; Experiment 3 (19-03-10), OligoCF-5/20 +6% G): 256 mg/L (≈ 714 µM)
MIC ([11]; Experiment 3 (19-03-10), OligoCF-5/20 +10% G): 128^† μg/ml
MIC ([12]; Acinetobacter lwoffii): < 0.5 mg/L
MIC ([12]; Table 5, V10 MDR Acin. lwoff, OligoCF-5/20 +2% G): <0.5 mg/L
MIC ([12]; Table 5, V10 MDR Acin. lwoff, OligoCF-5/20 +6% G): <0.5 mg/L
MIC ([12]; Table 5, V10 MDR Acin. lwoff, OligoCF-5/20 +10% G): <0.5 mg/L
